Reference: patent publication US11179412B2, “Methods of treating conditions involving elevated inflammatory response” (University of Pittsburgh—Of the Commonwealth System of …, priority 2017, dated 2021)
Structures can show the parent of a compound that is named as a salt.

The compounds below were run on STING activation (IFNβ release) in iBMDMs (assay: IFNβ release ELISA after STING ligand (or LPS) stimulation, iBMDMs). Settings: iBMDMs; 3′3′-cGAMP 10 μg/ml, 16 hours; compound 10 μM.
Type: cell-based, mouse
Summary of the method: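 iBMDMs were stimulated with a STING ligand such as 3′3′-cGAMP, or with LPS. Secreted IFNβ in culture medium was measured by commercial mouse or human IFNβ ELISA.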

Row | SMILES | fold increase in IFN-β release | 3′3′-cGAMP-induced IFNβ release
1 | Cc1cc(SCc2sc(-c3ccc(C(F)(F)F)c(F)c3)nc2C)ccc1OCC(=O)O [GW0742] | 0.13 fold | –
2 | COc1ccc(COc2ccc(Cc3cnc(N)nc3N)cc2OC)cc1 [GW2580] | 1.21 fold | –
3 | Cl.O=C(O)Cc1cccc(OCCCN(Cc2cccc(C(F)(F)F)c2Cl)CC(c2ccccc2)c2ccccc2)c1 [GW3965 HCl] | 0.74 fold | –
4 | CC(C)c1onc(-c2c(Cl)cccc2Cl)c1COc1ccc(/C=C/c2cccc(C(=O)O)c2)c(Cl)c1 [GW4064] | 1.26 fold | –
5 | O=C(O)CCc1ccc(NCc2cccc(Oc3ccccc3)c2)cc1 [GW9508] | 0.80 fold | –
6 | O=C(Nc1ccccc1)c1cc([N+](=O)[O-])ccc1Cl [GW9662] | 2.50 fold | –
7 | CC(C)c1cc(-c2n[nH]c(=O)n2-c2ccc3c(ccn3C)c2)c(O)cc1O [Ganetespib (STA-9090), Ganetespib] | 1.80 fold | –
8 | C[C@@H]1C(=O)O[C@H]2C[C@@]34[C@H]5C[C@@H](C(C)(C)C)[C@]36[C@@H](OC(=O)[C@@H]6O)O[C@@]4(C(=O)O5)[C@]21O [Ginkgolide A] | 2.14 fold | –
9 | CC1C(=O)OC2C(O)C34C5CC(C(C)(C)C)C36C(OC(=O)C6O)OC4(C(=O)O5)C12O (centres unmarked) [Ginkgolide B] | 1.44 fold | –
10 | Cc1ccc(S(=O)(=O)NC(=O)NN2CC3CCCC3C2)cc1 (centres unmarked) [Gliclazide] | 1.93 fold | –
11 | COc1ccc2c(c1)C(=O)N(CCc1ccc(S(=O)(=O)NC(=O)NC3CCCCC3)cc1)C(=O)C2(C)C [Gliquidone] | 1.20 fold | –
12 | COc1ccc2c(c1)c(C1=C(c3c[nH]c4ccccc34)C(=O)NC1=O)cn2CCCN(C)C [Go 6983] | 0.26 fold | –
13 | Fc1cc(F)c2c(c1)C1C=CCC1C(c1cccnc1)N2 (centres unmarked) [Golgicide A] | 4.19 fold | –
14 | Cl.Cl.O=S(=O)(NCCNC/C=C/c1ccc(Br)cc1)c1cccc2cnccc12 [H 89 2HCl] | 1.91 fold | –
15 | CCOC(=O)C1=C(N)Oc2ccc(Br)cc2C1C(C#N)C(=O)OCC (centres unmarked) [HA14-1] | 0.45 fold | –
16 | CC(C)c1ccc(NC(=O)Cn2cnc3c2c(=O)n(C)c(=O)n3C)cc1 [HC-030031] | 1.05 fold | –
17 | Cc1cc(C)c(S(=O)(=O)n2cc(C)cc2C)c(C)c1 [HJC0350] | 1.05 fold | –
18 | COc1cc2c(cc1-c1c(C)noc1C)ncc1[nH]c(=O)n([C@H](C)c3ccccn3)c12 [I-BET151 (GSK1210151A)] | 0.40 fold | –
19 | O=C1[C@H](Cc2ccc(O)cc2)N2C(=O)CCN(C(=O)NCc3ccccc3)[C@H]2CN1Cc1cccc2ccccc12 [ICG-001] | 0.10 fold | –
20 | O=C(c1ccc(Nc2nccc(-c3cc4ccccc4s3)n2)cc1)N1CCC(N2CCCC2)CC1 [IKK-16 (IKK Inhibitor VII)] | 1.16 fold | –
21 | O=C(Nc1cc(C(F)(F)F)cc(C(F)(F)F)c1)c1cc(Cl)ccc1O [IMD 0354] | 0.86 fold | –
22 | O=C(O)CNC(=O)c1c(O)c2ccccc2n(Cc2ccccc2)c1=O [IOX2] | 0.44 fold | –

Row | SMILES | fold increase in IFN-β release | 3′3′-cGAMP-induced IFNβ release
23 | Oc1ccc2ccccc2c1SSc1c(O)ccc2ccccc12 [IPA-3] | 0.35 fold | –
24 | Cc1ccc2nc(NC(=O)CSc3nc4c(c(=O)n3-c3ccccc3)SCC4)sc2c1 [IWP-2] | 3.84 fold | –
25 | C=CC(=O)N1CCC[C@@H](n2nc(-c3ccc(Oc4ccccc4)cc3)c3c(N)ncnc32)C1 [Ibrutinib (PCI-32765), Ibrutinib] | 0.53 fold | –
26 | C#Cc1cccc(Nc2ncnc3cc4c(cc23)OCCOCCOCCO4)c1 [Icotinib] | 0.57 fold | –
27 | CNC(=O)[C@H](Cc1c[nH]c2ccccc12)NC(=O)[C@@H](CC(=O)NO)CC(C)C [Ilomastat (GM6001, Galardin), Ilomastat] | 1.81 fold | –
28 | Cc1ccc(NC(=O)c2ccc(CN3CCN(C)CC3)cc2)cc1Nc1nccc(-c2cccnc2)n1 [Imatinib (STI571), Imatinib] | 1.04 fold | –
29 | CCOC(=O)[C@H](CCc1ccccc1)N[C@@H](C)C(=O)N1C(=O)N(C)C[C@H]1C(=O)O [Imidapril HCl] | 3.20 fold | –
30 | NC(=O)c1ccc(I)c([N+](=O)[O-])c1 [Iniparib (BSI-201), Iniparib] | 0.23 fold | –
31 | CCc1c2c(nc3ccc(OC(=O)N4CCC(N5CCCCC5)CC4)cc13)-c1cc3c(c(=O)n1C2)COC(=O)[C@]3(O)CC [Irinotecan] | 1.13 fold | –
32 | CC1=C(/C=C/C(C)=C/C=C/C(C)=C\C(=O)O)C(C)(C)CCC1 [Isotretinoin] | 0.10 fold | –
33 | Cc1ccc(C(=O)N(CCCN)[C@@H](c2nc3cc(Cl)ccc3c(=O)n2Cc2ccccc2)C(C)C)cc1 [Ispinesib (SB-715992), Ispinesib] | 2.12 fold | –
34 | CCn1c(=O)c2c(nc(/C=C/c3ccc(OC)c(OC)c3)n2C)n(CC)c1=O [Istradefylline] | 1.90 fold | –
35 | CC(C)(C)c1cc(C(C)(C)C)c(NC(=O)c2c[nH]c3ccccc3c2=O)cc1O [Ivacaftor (VX-770), Ivacaftor] | 1.27 fold | –
36 | O=C(Nc1ccccc1)N1CCN(c2nc(-c3ccccc3)ns2)CC1 [JNJ-1661010] | 1.03 fold | –
37 | N#Cc1c(NC(=O)c2cccc3ccccc23)sc2c1CCCC2 [JNK Inhibitor IX] | 0.53 fold | –
38 | Cc1ccc(NCCCc2ccccc2)c(N)c1 [JSH-23] | 2.80 fold | –
39 | COc1cc(-c2ncn(/C=C\C(=O)OC(C)C)n2)cc(C(F)(F)F)c1 [KPT-185] | 0.59 fold | –
40 | O=C(/C=C\n1cnc(-c2cc(C(F)(F)F)cc(C(F)(F)F)c2)n1)N1CC(F)(F)C1 [KPT-276] | 0.54 fold | –
41 | O=c1cc(-c2cccc3c2Sc2ccccc2S3)oc(N2CCOCC2)c1 [KU-55933 (ATM Kinase Inhibitor)] | 0.33 fold | –
42 | COC(=O)CCSCc1ccc(-c2onc(C)c2NC(=O)OC(C)c2ccccc2Cl)cc1 (centres unmarked) [Ki16198] | 0.51 fold | –
43 | Cc1noc(-c2ccc(CSCCC(=O)O)cc2)c1NC(=O)OC(C)c1ccccc1Cl (centres unmarked) [Ki16425] | 1.41 fold | –
44 | O=C(c1cn(Cc2cncn2Cc2ccc(Br)cc2)cc1-c1cccc2ccccc12)N1CCOCC1 [LB42708] | 1.35 fold | –

Row | SMILES | fold increase in IFN-β release | 3′3′-cGAMP-induced IFNβ release
45 | COc1ccccc1-c1cc(Nc2cccc(CS(N)(=O)=O)c2)ncn1 [LDC000067] | 1.43 fold | –
46 | Cc1c(C(=O)Nc2ccc(N3C[C@@H](C)O[C@@H](C)C3)nc2)cccc1-c1ccc(OC(F)(F)F)cc1 [LDE225 (NVP-LDE225, Erismodegib), Erismodegib] | 1.31 fold | –
47 | c1cc(-c2cnn3cc(-c4ccc(N5CCNCC5)cc4)cnc23)c2cccnc2c1 [LDN-212854] | 0.33 fold | –
48 | C[C@H](NC(=O)[C@@H](O)c1cc(F)cc(F)c1)C(=O)N[C@@H]1C(=O)N(C)c2ccccc2-c2ccccc21 [LY411575] | 0.26 fold | –
49 | Cc1cccc(-c2nn3c(c2-c2ccnc4ccc(C(N)=O)cc24)CCC3)n1 [LY2157299] | 2.50 fold | –
50 | CC(C)(C)Cn1c(N)nc2ccc(-c3[nH]c(C(C)(C)C)nc3-c3ccc(F)cc3)nc21 [LY2228820] | 5.15 fold | –
51 | Cc1cnc(NC(=O)Nc2cc(Br)c(C)cc2OC[C@@H]2CNCCO2)cn1 [LY2603618] | 1.08 fold | –
52 | Cc1cc(Nc2cc(CN3CCOCC3)c3nc(C)c(Cc4ccc(Cl)cc4F)n3n2)n[nH]1 [LY2784544] | 2.09 fold | –
53 | CC(CCc1ccccc1)NCC(O)c1ccc(O)c(C(N)=O)c1 (centres unmarked) [Labetalol HCl] | 2.96 fold | –
54 | O=C(C[S+]([O-])Cc1ccco1)NC/C=C\COc1cc(CN2CCCCC2)ccn1 (centres unmarked) [Lafutidine] | 2.85 fold | –
55 | Nc1cccc2c1CN(C1CCC(=O)NC1=O)C2=O (centres unmarked) [Lenalidomide (CC-5013), Lenalidomide] | 1.09 fold | –
56 | N#Cc1ccc(C(c2ccc(C#N)cc2)n2cncn2)cc1 [Letrozole] | 0.61 fold | –
57 | CCN1CCC[C@H]1CNC(=O)c1cc(S(N)(=O)=O)ccc1OC [Levosulpiride] | 1.91 fold | –
58 | CCN(CC)CC(=O)Nc1c(C)cccc1C [Lidocaine] | 9.58 fold | promoted
59 | CC#CCn1c(N2CCC[C@@H](N)C2)nc2c1c(=O)n(Cc1nc(C)c3ccccc3n1)c(=O)n2C [Linagliptin] | 2.07 fold | –
60 | Nc1nc(OCc2cc(Br)cs2)c2[nH]cnc2n1 [Lomeguatrib] | 1.27 fold | –
61 | CCOC(=O)N1CCC(=C2c3ccc(Cl)cc3CCc3cccnc32)CC1 [Loratadine] | 3.65 fold | –
62 | CCCCc1nc(Cl)c(CO)n1Cc1ccc(-c2ccccc2-c2nn[nH]n2)cc1 [Losartan Potassium (DuP 753), Losartan Potassium] | 1.35 fold | –
63 | Cc1c(F)cc(C(=O)NC2CC2)cc1-c1ccc(C(=O)NCC(C)(C)C)cn1 [Losmapimod (GW856553X), Losmapimod] | 1.20 fold | –
64 | CC[C@H](C)C(=O)O[C@H]1C[C@@H](C)C=C2C=C[C@H](C)[C@H](CC[C@@H]3C[C@@H](O)CC(=O)O3)[C@H]21 [Lovastatin] | 1.22 fold | –
65 | CC(C)CCNC(=O)[C@H](CC(C)C)NC(=O)[C@H]1O[C@@H]1C(=O)O [Loxistatin Acid (E-64C), Loxistatin Acid] | 0.70 fold | –
66 | C=CCn1c(=O)c2cnc(Nc3ccc(N4CCN(C)CC4)cc3)nc2n1-c1cccc(C(C)(C)O)n1 [MK-1775] | 4.54 fold | –

Same assay, conditions: iBMDMs; 3′3′-cGAMP 10 μg/ml, 16 hours; compound 10 μM; HCl Trihydrate

Row | SMILES | fold increase in IFN-β release
67 | CCc1c2c(nc3ccc(OC(=O)N4CCC(N5CCCCC5)CC4)cc13)-c1cc3c(c(=O)n1C2)COC(=O)[C@]3(O)CC [Irinotecan HCl Trihydrate] | 0.51 fold
